Data on five molecules can be found in ChEMBL document CHEMBL3627640 (Bioorg Med Chem, 2015).

The assay concerns the target T1, Mitogen-activated protein kinase kinase kinase 7 (Homo sapiens, UniProt O43318).
T1 sequence (O43318 whole entry): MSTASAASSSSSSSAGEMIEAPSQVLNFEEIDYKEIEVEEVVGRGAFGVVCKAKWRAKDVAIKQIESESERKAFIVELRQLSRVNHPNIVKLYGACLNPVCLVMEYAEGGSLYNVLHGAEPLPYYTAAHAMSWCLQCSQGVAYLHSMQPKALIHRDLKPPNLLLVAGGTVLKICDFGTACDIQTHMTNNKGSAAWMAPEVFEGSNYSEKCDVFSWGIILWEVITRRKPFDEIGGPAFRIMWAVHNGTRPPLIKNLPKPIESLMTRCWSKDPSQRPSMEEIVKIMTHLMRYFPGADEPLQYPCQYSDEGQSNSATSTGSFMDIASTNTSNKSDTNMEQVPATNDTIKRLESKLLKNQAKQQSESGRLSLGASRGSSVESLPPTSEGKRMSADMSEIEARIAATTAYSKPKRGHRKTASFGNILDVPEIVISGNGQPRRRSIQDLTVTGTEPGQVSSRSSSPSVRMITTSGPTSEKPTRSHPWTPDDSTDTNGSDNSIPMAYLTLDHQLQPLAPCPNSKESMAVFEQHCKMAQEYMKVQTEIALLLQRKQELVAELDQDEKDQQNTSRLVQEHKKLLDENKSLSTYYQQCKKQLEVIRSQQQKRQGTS
Description: Inhibition of TAK1 (unknown origin).
Regarding `COc1cc(O)c2c(c1)/C=C/C[C@H](O)[C@H](O)C(=O)CCC[C@H](C)OC2=O`, 2.6 µM corresponded to half-maximal inhibition (IC50). Under `COc1cc(O)cc2c1C(=O)O[C@@H](C)CCCCC/C=C/C(=O)C2` stands over 30 µM; under `COc1cc(O)c2c(c1)/C=C/C[C@@H]1OC(CC(=O)[C@H]1O)C[C@H](C)OC2=O`, over 30 µM. The figure for `COc1cc(O)c2c(c1)[C@H]1O[C@@H]1C[C@H](O)[C@H](O)C(=O)CCC[C@H](C)OC2=O` is over 30 µM; for `C/C=C/C=C\C(=O)[C@@H](O)[C@@H](O)C/C=C/c1cc(OC)cc(OC)c1C(=O)OC` it is over 30 µM.
